The source of these data is US20230398125A1, “TREATING HEPATITIS” (Albireo AB, priority 2022, published 2023).

One test deals with T1, Mouse NTCP (Mus musculus, UniProt O08705).
T1 construct: expressed in transfected cells; kept under geneticin selection
T1 sequence (O08705 1-362): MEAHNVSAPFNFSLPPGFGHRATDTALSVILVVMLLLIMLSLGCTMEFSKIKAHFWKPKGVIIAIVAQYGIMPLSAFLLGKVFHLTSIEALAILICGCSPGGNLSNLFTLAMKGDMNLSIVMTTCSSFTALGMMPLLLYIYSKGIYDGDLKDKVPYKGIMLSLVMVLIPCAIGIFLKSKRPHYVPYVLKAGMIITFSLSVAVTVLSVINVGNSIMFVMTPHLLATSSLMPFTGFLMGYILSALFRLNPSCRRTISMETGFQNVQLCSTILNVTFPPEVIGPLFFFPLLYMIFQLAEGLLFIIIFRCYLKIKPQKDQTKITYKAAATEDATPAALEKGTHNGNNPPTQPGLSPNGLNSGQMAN
As to the kind of experiment: 3H-taurocholic acid uptake in mouse NTCP-overexpressing cells. Conditions: 3H-taurocholic acid transport. Type of test: cell-based. How it is done: 20,000 cells (Human & Mouse NTCP-overexpressing cells) were seeded in 96-well plate in 100 μL MEM-alpha medium supplemented with 10% FBS containing geneticin (1 mg/mL) and incubated at 37° C. in 5% CO2 for 24 hrs. After incubation, media was decanted from the wells and cells were washed two times with 250 μL of basal MEM-alpha medium (FBS-free). After each wash, plates were tapped against a paper towel to ensure maximum removal of residual media. For Human NTCP (hNTCP), incubation mix was prepared by adding test inhibitor dilutions (3-fold serial dilution in DMSO, 10 concentrations) in MEM-alpha (without FBS) containing 0.3 μM ^3H-taurocholic acid and 7.5 μM cold taurocholic acid (maintaining 0.2% final DMSO concentration). […]
The plates were tapped against a paper towel after every wash to ensure maximum removal of blocking buffer. 100 μL of MicroScint-20 was added to the wells and kept overnight at room temperature before reading the plates in MicroBeta2 liquid Scintillation Counter from PerkinElmer under 3H Test for I/L-BAT protocol (set at 120 seconds reading time per well, with normal plate orientation).
Percentage inhibitions were calculated with respect to the assay controls. […]

In test [1] the test system is HBV (HepG2 AD38 genotype D). As to the kind of experiment: Combination of Compound 1 with tenofovir in HBV-infected primary human hepatocytes (MacSynergy II). Format: cell-based, hepatitis B virus. Conditions: summary of studies. As for the experimental part:
In two sets of experiments, the effect of combining Compound 1 with tenofovir was studied. Effects of the drug combination were calculated based on the activity of the two compounds when tested alone. The expected additive antiviral protection (based on the dose response curves of the individual agents used alone) was subtracted from the experimentally determined antiviral activity at each combination concentration resulting in a positive value (synergy), a negative value (antagonism), or zero (additivity). […] The results of the combination assays were expressed as a synergy volume μM2% calculated at the 95% confidence interval using the MacSynergy II template.
For these studies, synergy was defined as drug combinations yielding synergy volumes greater than 50 μM2%. Slightly synergistic activity and highly synergistic activity have been defined as yielding synergy volumes of […] and >100 μM2%, respectively.
Synergy volumes between −50 and 50 μM2% were considered additive and synergy volumes less than −50 μM2% were considered antagonistic.

Another test has as its system HBV (genotype D). As to the kind of experiment: In vitro HBV infection of NTCP-HepG2 cells, second study (HBeAg, HBc). Format: cell-based, hepatitis B virus. Conditions: for IC50: Hepatitis B virus. As for the experimental part:
In a second study, recombinant HBV (genotype D) was produced in vitro as described in the literature (König et al. 2014). […] The myr-preS12-48 peptide (500 nM, genotype D) was used as control inhibitor. All infection experiments were performed in NTCP-HepG2 cells cultured in HGM in the presence of the corresponding compounds with different concentrations, 4% PEG-8000 (Sigma-Aldrich, Darmstadt, Germany), 2% DMSO (Carl Roth, Karlsruhe, Germany) and 100 ng/ml EGF (PeproTech, Hamburg, Germany) as final concentration each. Recombinant HBV was diluted in HGM to a final concentration of 2.5×10^10 HBV-genome copies per well (7×10^8 IU per well) and was added to the cells for 6 h. Subsequently, cells were washed with HGM and cultured in HGM supplemented with 2% DMSO. Medium was changed every 2-3 days until cells were fixed at day 9 p.i. with 3.8% paraformaldehyde (Sigma-Aldrich) in PBS, for 30 min at RT. The cells were immunostained at 37° C. for 1 h (1:400 dilution). For detection of HBV core (HBc) protein expression, a polyclonal anti-HBc antiserum from an immunized guinea pig (1:500 dilution, Eurogentec, Seraing, Belgium) was used as primary antibody and an Alexa Fluor 488-conjugated goat anti-guinea-pig-IgG-antibody (1:400 dilution, Thermo Fisher Scientific) as secondary antibody. Nuclei were stained with DAPI (0.5 μg/ml, Thermo Fisher Scientific). […] HBV-infected cells secrete the soluble HBeAg, which is a widely-accepted quantitative marker for productive HBV infection in cell culture experiments. In this study, HBeAg secreted from infected cells into the cell culture supernatant was determined of supernatant collected from day 5 to 9 p.i. using the Architect HBeAg assay, an automated in vitro diagnostic system (Abbott Laboratories, Wiesbaden, Germany).
Determination of IC50 values was done by nonlinear regression analysis using the equation log(inhibitor) vs. response settings of the GraphPad Prism 6.0 software (GraphPad). Data of [^3H]TC transport and [^3H]preS1 binding are expressed as means±SD from quadruplicate determinations. […]

Read-outs that look alike come from different tables or passages of the source.

For the compound `CCCCC1CN(c2ccccc2)c2cc(SC)c(O/C=C(\F)C(=O)O)cc2S(=O)(=O)N1C` (centres unmarked) [Compound 1, (Z)-3-((3-butyl-2-methyl-7-(methylthio)-1,1-dioxido-5-phenyl-2,3,4,5-tetrahydro-1,2,5-benzothiadiazepin-8-yl)oxy)-2-fluoroacrylic acid], the IC50 against Mouse NTCP was 1.82 ± 0.25 nM; with HBV (genotype D) (read-out: IC50 in vitro HBV infection (HBc)) it was 16.1 nM; in the test with HBV (genotype D) (read-out: IC50 in vitro HBV infection (HBeAg)), 19.1 nM. For the same compound, the “antiviral effect when given together with tenofovir disoproxil fumarate” value in test [1] is reported as “additive”. In the test with HBV (genotype D) (second study, highest inhibitor concentration 1000 nM), the “HBeAg secretion relative to cut off value” is “above the cut off value”.
